From ChEMBL document CHEMBL5316333, “Potent Long-Acting Inhibitors Targeting the HIV-1 Capsid Based on a Versatile Quinazolin-4-one Scaffold” (J Med Chem, 2023) come the findings set out here.

≈ marks a conversion by molar mass, not a printed value.

Data set [1] is described as follows: Selectivity index, ratio of CC50 for cytotoxicity against human MT2 cells to EC50 for antiviral activity against HIV-1 NLRep-Rluc infected in human MT2 cells. To be noted: read-out: Ratio CC50/EC50. The format is toxicity, cell-based.
Data set [2] deals with Human immunodeficiency virus 1. The data set can be described thus: Antiviral activity against HIV-1 NLRep-Rluc infected in human MT2 cells assessed as inhibition of viral growth incubated for 96 hrs by renilla luciferase assay. The format is functional, organism-based.
Data set [3] has as its system MT2. Nature of the data set: (§1) Cytotoxicity against human MT2 cells assessed as reduction in cell viability incubated for 4 days by XTT assay. The format is toxicity, cell-based. To be noted: mt2, 96 h, 96 h, time 4 day. On the technique in general: Formazan colour is commonly taken as a measure of viable cells.
A short description of data set [4]: Solubility of the compound at pH 2 buffer. The format is physicochemical.
Data set [5] can be described thus: Toxicity in female Beagle dog assessed as change in ALP level at 100 mg/kg, po QD for 7 days relative to baseline pretreatment. The format is organism-based, Canis lupus familiaris. Conditions: in vivo, 168 h, time 7 day.
Data set [6] is described as follows: Solubility of the compound in FaSSGF at pH 1.6. It is filed as physicochemical.
The nature of data set [7]: Clearance in Sprague-Dawley rat at 1 mg/kg, iv and measured upto 96 hrs by LC-MS/MS analysis. The format is ADME, organism-based. To be noted: in vivo.
A short description of data set [8]: Toxicity in male Beagle dog assessed as fold increase in TBA level […] at 100 mg/kg, po QD for 7 days relative to baseline pretreatment. It is filed as organism-based, Canis lupus familiaris. Conditions: in vivo, 168 h, time 7 day.
A short description of data set [9]: Cmax in male Beagle dog at 100 mg/kg, po QD and measured after 1 day by LC-MS/MS analysis. It is filed as ADME, organism-based, Canis lupus familiaris. Further details: time 1 day, dose 100 mg/kg, route po. To be noted: in vivo.
The nature of data set [10]: Cmax in male Beagle dog at 100 mg/kg, po QD and measured after 7 days by LC-MS/MS analysis. It is filed as ADME, organism-based, Canis lupus familiaris. Also on record: dose 100 mg/kg, time 7 day, route po. Conditions: in vivo.
Data set [11] is described as follows: Plasma concentration in Beagle dog at 5 mg/kg, SC and measured after 10 days by LC-MS/MS analysis. It is filed as ADME, organism-based, Canis lupus familiaris. Conditions: time 10 day.
Data set [12] can be described thus: AUC (0 to 24) in female Beagle dog at 100 mg/kg, po QD and measured after 1 day by LC-MS/MS analysis. The format is ADME, organism-based, Canis lupus familiaris. To be noted: in vivo. Also on record: time 1 day, dose 100 mg/kg, route po.
Data set [13] in a line: Solubility of the compound at pH 6.5 buffer. The format is physicochemical.
Data set [14] in a line: Half life in Wistar Han rat plasma at 20 mg/kg, SC and measured after 21 days by LC-MS/MS analysis. The format is ADME, organism-based. Conditions: time 21 day.
Data set [15] is described as follows: Toxicity in male Beagle dog assessed as fold increase in AST level […] at 100 mg/kg, po QD for 7 days relative to baseline pretreatment. To be noted: in vivo, 168 h, time 7 day. The format is organism-based, Canis lupus familiaris.
The nature of data set [16]: Toxicity in female Beagle dog assessed as change in ALT level at 100 mg/kg, po QD for 7 days relative to baseline pretreatment. It is filed as organism-based, Canis lupus familiaris. Conditions: in vivo, 168 h, time 7 day.
Data set [17] can be described thus: Plasma concentration in Beagle dog at 5 mg/kg, IM and measured after 10 days by LC-MS/MS analysis. The format is ADME, organism-based, Canis lupus familiaris. Conditions: time 10 day.
Data set [18] is described as follows: Toxicity in female Beagle dog assessed as change in TBA level at 100 mg/kg, po QD for 7 days relative to baseline pretreatment. To be noted: in vivo, 168 h, time 7 day. It is filed as organism-based, Canis lupus familiaris.
The nature of data set [19]: Cmax in female Beagle dog at 100 mg/kg, po QD and measured after 1 day by LC-MS/MS analysis. Conditions: in vivo. The format is ADME, organism-based, Canis lupus familiaris. Further details: dose 100 mg/kg, time 1 day, route po.
Data set [20] in a line: Plasma concentration in Wistar Han rat at 20 mg/kg, SC and measured at 21 days by LC-MS/MS analysis. It is filed as ADME, organism-based. To be noted: time 21 day.
Data set [21] in a line: Toxicity in male Beagle dog assessed as increase in mitotic figures in hepatocytes at 100 mg/kg, po QD for 7 days by microscopy. It is filed as organism-based, Canis lupus familiaris. To be noted: in vivo, 168 h, time 7 day.
Data set [22] can be described thus: Toxicity in male Beagle dog assessed as fold increase in ALT level […] at 100 mg/kg, po QD for 7 days relative to baseline pretreatment. It is filed as organism-based, Canis lupus familiaris. Conditions: in vivo, 168 h, time 7 day.
The nature of data set [23]: Toxicity in female Beagle dog assessed as change in AST level at 100 mg/kg, po QD for 7 days relative to baseline pretreatment. The format is organism-based, Canis lupus familiaris. To be noted: in vivo, 168 h, time 7 day.
A short description of data set [24]: Toxicity in male Beagle dog assessed as fold increase in GLDH level […] at 100 mg/kg, po QD for 7 days relative to baseline pretreatment. Conditions: in vivo, 168 h, time 7 day. The format is organism-based, Canis lupus familiaris.
A short description of data set [25]: Half life in Wistar Han rat plasma at 20 mg/kg, IM and measured after 21 days by LC-MS/MS analysis. The format is ADME, organism-based. Conditions: time 21 day.
Data set [26] in a line: Toxicity in female Beagle dog assessed as change in GLDH level at 100 mg/kg, po QD for 7 days relative to baseline pretreatment. The format is organism-based, Canis lupus familiaris. Conditions: in vivo, 168 h, time 7 day.
Data set [27] is described as follows: Plasma concentration in Wistar Han rat at 20 mg/kg, IM and measured at 21 days by LC-MS/MS analysis. To be noted: time 21 day. The format is ADME, organism-based.
Data set [28] can be described thus: Toxicity in male Beagle dog assessed as fold increase in ALP level […] at 100 mg/kg, po QD for 7 days relative to baseline pretreatment. It is filed as organism-based, Canis lupus familiaris. Conditions: in vivo, 168 h, time 7 day.
Data set [29] is described as follows: Solubility of the compound in FaSSIF at pH 6.5. It is filed as physicochemical.
The nature of data set [30]: Drug metabolism in Beagle dog plasma assessed as metabolite formation at 100 mg/kg, po for 7 days by LC-MS/MS analysis. The format is ADME, organism-based, Canis lupus familiaris. To be noted: in vivo, 168 h, time 7 day.
Data set [31] can be described thus: AUC (0 to 24) in male Beagle dog at 100 mg/kg, po QD and measured after 7 days by LC-MS/MS analysis. It is filed as ADME, organism-based, Canis lupus familiaris. Further details: dose 100 mg/kg, time 7 day, route po. Conditions: in vivo.
Data set [32] is described as follows: Toxicity in male Beagle dog assessed as hyperplasia of Kupffer cells at 100 mg/kg, po QD for 7 days by microscopy. It is filed as organism-based, Canis lupus familiaris. Conditions: in vivo, 168 h, time 7 day.
Data set [33] in a line: Half life in Wistar Han rat plasma at 1 mg/kg,iv and measured upto 96 hrs by LC-MS/MS analysis. The format is ADME, organism-based.
Data set [34] in a line: AUC (0 to 24) in female Beagle dog at 100 mg/kg, po QD and measured after 7 days by LC-MS/MS analysis. It is filed as ADME, organism-based, Canis lupus familiaris. Also on record: dose 100 mg/kg, time 7 day, route po. Conditions: in vivo.
A short description of data set [35]: Half life in Beagle dog plasma at 5 mg/kg,SC and measured after 21 days by LC-MS/MS analysis. It is filed as ADME, organism-based, Canis lupus familiaris. To be noted: time 21 day.
Data set [36] in a line: Cmax in female Beagle dog at 100 mg/kg, po QD and measured after 7 days by LC-MS/MS analysis. Further details: time 7 day, dose 100 mg/kg, route po. Conditions: in vivo. The format is ADME, organism-based, Canis lupus familiaris.
The nature of data set [37]: AUC (0 to 24) in male Beagle dog at 100 mg/kg, po QD and measured after 1 day by LC-MS/MS analysis. To be noted: in vivo. It is filed as ADME, organism-based, Canis lupus familiaris. Also on record: dose 100 mg/kg, time 1 day, route po.
The nature of data set [38]: Solubility of compound in FeSSIF at pH 5. The format is physicochemical.
Data set [39] in a line: Half life in Beagle dog plasma at 5 mg/kg,IM and measured after 21 days by LC-MS/MS analysis. Conditions: time 21 day. It is filed as ADME, organism-based, Canis lupus familiaris.
Data set [40] is described as follows: as §1. Conditions: MT2 cells, time 4 day. The format is toxicity, cell-based.

For orientation: EC50 means the midpoint of the concentration-response curve. The CC50 is the concentration giving 50% cytotoxicity. With `COc1cccc2nc([C@H](Cc3cc(F)cc(F)c3)NC(=O)Cn3nc(C(F)F)c4c3C(F)(F)[C@@H]3C[C@H]43)n(-c3ccc(Cl)c4c(NS(C)(=O)=O)nn(C)c34)c(=O)c12` (stereo in doubt; 12d), the selectivity ratio in data set [1] is greater than 1000. Moreover, the EC50 in data set [2] (mt2) was 0.11 nM. Also, the CC50 in data set [3] is greater than 20000 nM.
The term solubility denotes how much of the substance goes into solution per volume. As a reminder, the clearance is the volume of plasma or blood freed of the substance per unit of time. Read a low clearance as inefficient removal. The Cmax is the peak of the concentration-time curve. As usually defined, the AUC is the area under the concentration-time curve, a measure of exposure. A lower AUC goes with less exposure. As a reminder, the half-life is the time in which the quantity being followed falls by half. High values mean slow loss, low ones fast loss. Turning to `C[C@@H]1CN(c2ccc3c(=O)n(-c4ccc(Cl)c5c(NS(C)(=O)=O)nn(C)c45)c([C@H](Cc4cc(F)cc(F)c4)NC(=O)Cn4nc(C(F)F)c5c4C(F)(F)[C@@H]4C[C@H]54)nc3c2)C[C@H](C)O1`, the solubility in data set [4] is less than 1 µg/mL; in data set [6] it was less than 1 µg/mL; in data set [13], less than 1 µg/mL; in data set [29], less than 1 µg/mL; in data set [38] it was 22 µg/mL (≈ 24 µM). Besides, the Activity entry in data set [5] is “Non-Toxic”; in data set [16], “Non-Toxic”; in data set [18] it was “Non-Toxic”; in data set [21], “Toxic”; in data set [23], “Non-Toxic”; in data set [26] it was “Non-Toxic”. For the same compound, in data set [32], the Activity result is “Toxic”. Besides, in data set [2] (Human immunodeficiency virus 1, NLRep-Rluc, MT2, 96 h), the EC50 was 0.039 nM. The compound also returned a clearance in data set [7] of 8.9 mL/min/kg. Also, the “fold change (FC)” value in data set [8] stood at 3; in data set [15] it was 4.8; in [22] it was 87; in [24], 94; in data set [28] it was 4.9. Moreover, the peak concentration (Cmax) in data set [9] was 451 ng/mL; in data set [10], 13600 ng/mL; in [19] it was 344 ng/mL; in [36], 1320 ng/mL. The concentration at 240 h in [11] and in data set [17] was less than 2.2 ng/mL in each case. Also, the area under the curve (AUC) at 24 h in [12] came out at 1360 ng·h/mL; in data set [37], 3710 ng·h/mL. Moreover, the half-life in [14] is 39 h; in data set [25] it was 39 h; in data set [33], 3.2 h; in data set [35], 39 h; in data set [39] it was 39 h. For the same compound, the concentration at 504 h in data set [20] and in [27] was 10 ng/mL in each case. The Drug metabolism entry in [30] is “Metabolite_Detected”. In addition, the exposure (AUC) at 168 h was determined as 299000 ng·h/mL in data set [31] and 6780 ng·h/mL in [34].
In the case of `COc1ccc2nc([C@H](Cc3cc(F)cc(F)c3)NC(=O)Cn3nc(C(F)F)c4c3C(F)(F)[C@@H]3C[C@H]43)n(-c3ccc(Cl)c4c(NS(C)(=O)=O)nn(C)c34)c(=O)c2c1` (stereo in doubt; 12c), the selectivity ratio in data set [1] was greater than 1000. Besides, in [2] (mt2), the EC50 stood at 0.15 nM. In [40], the 50% cytotoxic concentration (CC50) at 96 h was greater than 20000 nM.
As for `COc1ccc2c(=O)n(-c3ccc(Cl)c4c(NS(C)(=O)=O)nn(C)c34)c([C@H](Cc3cc(F)cc(F)c3)NC(=O)Cn3nc(C(F)F)c4c3C(F)(F)[C@@H]3C[C@H]43)nc2c1` (stereo in doubt; 12b), the selectivity ratio in data set [1] was greater than 1000. The half-maximal effective concentration (EC50) in data set [2] (mt2) came to 0.058 nM. Moreover, the clearance in data set [7] was 8.3 mL/min/kg. Also, in [3], the CC50 was greater than 20000 nM.
Regarding `Cn1nc(NS(C)(=O)=O)c2c(Cl)ccc(-n3c([C@H](Cc4cc(F)cc(F)c4)NC(=O)Cn4nc(C(F)F)c5c4C(F)(F)[C@@H]4C[C@H]54)nc4ccccc4c3=O)c21` (stereo in doubt; 12a), the selectivity ratio in data set [1] was greater than 1000. For the same compound, in [2] (mt2), the EC50 was found to be 0.049 nM. The clearance in [7] came out at 30 mL/min/kg. Moreover, the half-maximal cytotoxic concentration (CC50) in [3] is greater than 20000 nM.
